Source: patent US20140357512A1, “HISTONE DEACETYLASE (HDAC) BIOMARKERS IN MULTIPLE MYELOMA” (priority 2013, published 2014)

System: human myeloma cell line MM.1S
Experiment: SILAC acetylated-lysine peptide profiling, HDAC inhibitor vs DMSO (light/heavy ratio)
Type: cell-based
Description: An embodiment of the invention comprises utilizing the SILAC method in order to quantitate changes in protein expression between two or more populations of cells. The SILAC method is a technique based on mass spectrometry that detects differences in protein abundance among samples using non-radioactive isotopic labeling. The SILAC method is known in the art, and described in detail in Ong et al., “Stable Isotope Labeling by Amino Acids in Cell Culture, SILAC, as a Simple and Accurate Approach to Expression Proteomics”, Molecular & Cellular Proteomics, vol. 1, pp. 376-386 (2002), which is incorporated herein by reference in its entirety.
Briefly, the SILAC method involves growing two populations of cells in cell culture. The first population of cells is grown in growth media containing normal amino acids (“normal media”). The second population of cells is grown in media lacking a standard essential amino acid (such as lysine), but is then supplemented with a non-radioactive, isotopically labeled form of that essential amino acid (such as lysine labeled with ^13C atoms, rather than normal ^12C atoms), which is called “heavy media”. When the two populations of cells are each growing in the medium, they incorporate the amino acids into all of their proteins. The growth of cells maintained in the heavy media is no different from that in normal media. All peptides containing the heavy amino acids are heavier than their normal counterparts. The cells from each of the two populations of cells are lysed. The lysates from each of the two cell populations are then combined. The combined cell lysates are then analyzed by mass spectrometry. Pairs of chemically identical peptides of different stable isotope composition can be differentiated in a mass spectrometer due to their difference in mass. The ratio of peak intensities in the mass spectrum for such peptide pairs reflects the abundance ratio for the two proteins.
This example describes SILAC studies that were performed to compare the effects of three different HDAC inhibitors (Compound A, Compound B, and tubastatin A) to a control on a human multiple myeloma cell line. The HDAC inhibitors were also compared amongst themselves to determine differences in their effects.
A human myeloma cell line MM.1S was grown using either ^12C (light) or ^13C (heavy) lysine containing culture medium. The “heavy” cells were treated with DMSO as the control, and the “light” cells were treated with a single HDAC inhibitor at 37° C. for 6 hours. The heavy and light cells were lysed, and the lysates were mixed in 1:1 ratio and digested with the protease trypsin. The acetylated lysine containing peptides (due to the action of the HDAC inhibitor) in the digested peptide pool were captured by a non-specific anti-acetylated lysine antibody cocktail (the antibodies identify both light and heavy acetylated peptides), and subjected to mass spectrometry analysis in order to identify thousands of individual peptides.
Thousands of peptides were identified in pairs (^12C and ^13C) due to their known mass differences. The amino acid sequence and quantitative ratio (Light/Heavy) of a given peptide in two differentially treated cell lysates were then determined and annotated with their possible protein (gene) sources.
As stated above, three HDAC inhibitors (Compound A, Compound B, and Tubastatin A) were used. Thus, the SILAC method was performed three times, with a different HDAC inhibitor compared to a control each time. Accordingly, there are three pairs of quantitative data in the table below, i.e., Compound A:DMSO, Compound B:DMSO, and Tubastatin A:DMSO. A cut-off of 1.30 fold of change (increase or decrease) was then used to determine “changed” or “+” in the table, and any peptides with a fold of change less than 1.3 fold were determined to be “unchanged” or “0” in the table. Those peptides that were not identified were marked as “NA” in the table. […]

O=C(NO)c1cnc(NC2(c3cccc(F)c3)CCCCC2)nc1 [Compound B, 2-((1-(3-fluorophenyl)cyclohexyl)amino)-N-hydroxypyrimidine-5-carboxamide]
light to heavy ratio (L/H ratio) of acetylated peptide SEVDMLK(ac)IR (SEQ ID NO: 295) (Putative annexin A2-like protein [302], ANXA2P2, drug:DMSO): 0.00 log 2
light to heavy ratio (L/H ratio) of acetylated peptide K(ac)[…] (SEQ ID NO: 358) (Putative annexin A2-like protein [310], ANXA2P2, drug:DMSO): 0.66 log 2
L/H ratio of acetylated peptide (QLNDVK(ac)[…] (SEQ ID NO: 386), Scavenger mRNA-decapping enzyme DcpS [128], DCPS): 0.97 log 2
L/H ratio of acetylated peptide EIDSVK(ac)[…] (SEQ ID NO: 73) (RAC2 [153], log 2 scale, drug vs DMSO): 0.00
light to heavy ratio (L/H ratio) of acetylated peptide, log 2 scale (RPAVK(ac)QFHDSK (SEQ ID NO: 203), 60S ribosomal protein L18a [143], RPL18A): 0.00
L/H ratio of acetylated peptide FIDTTSK(ac)FGHGR (SEQ ID NO: 83) (RPL3L [373], log 2 scale, drug vs DMSO): 0.00
L/H ratio of acetylated peptide AASLK(ac)SNYNLPMHK (SEQ ID NO: 84) (RPL4 [274], log 2 scale, drug vs DMSO): 0.00
L/H ratio of acetylated peptide NFLGEK(ac)YIR (SEQ ID NO: 86) (RPL9 [121], log 2 scale, drug vs DMSO): 0.00
L/H ratio of acetylated peptide […](ac)SR (SEQ ID NO: 79) (RPL18A [41], log 2 scale, drug vs DMSO): 0.00
L/H ratio of acetylated peptide YLK(ac)YLTK (SEQ ID NO: 81) (RPL22 [84], log 2 scale, drug vs DMSO): 0.00
L/H ratio of acetylated peptide INFDK(ac)YHPGYFGK (SEQ ID NO: 82) (RPL27A [47], log 2 scale, drug vs DMSO): 0.00
L/H ratio of acetylated peptide LK(ac)[…] (SEQ ID NO: 89) (RPS4X [53], log 2 scale, drug vs DMSO): 0.00
L/H ratio of acetylated peptide SFQK(ac)IQVR (SEQ ID NO: 90) (RPS7 [74], log 2 scale, drug vs DMSO): 0.00
L/H ratio of acetylated peptide […](ac)GK (SEQ ID NO: 87) (RPS23 [135], log 2 scale, drug vs DMSO): 0.00
L/H ratio of acetylated peptide LAVLK(ac)YYK (SEQ ID NO: 88) (RPS27A [104], log 2 scale, drug vs DMSO): 0.00
light to heavy ratio (L/H ratio) of acetylated peptide […](ac)YK (SEQ ID NO: 360) (Rho GDP-dissociation inhibitor 2 [47], ARHGDIB, drug:DMSO): 0.60 log 2
light to heavy ratio (L/H ratio) of acetylated peptide […](ac)R (SEQ ID NO: 334) (S1 IF1 type family protein [56], EIF1AXP1, drug:DMSO): −0.40 log 2
L/H ratio of acetylated peptide LAELK(ac)QECLAR (SEQ ID NO: 94) (SARNP 17], log 2 scale, drug vs DMSO): 0.00
L/H ratio of acetylated peptide (ac)ATETVELHK(ac)LK (SEQ ID NO: 93) (SARNP [10], log 2 scale, drug vs DMSO): 0.00
L/H ratio of acetylated peptide (SELEFK(ac)FNR (SEQ ID NO: 422), Sialic acid synthase [61], NANS): 0.53 log 2
L/H ratio of acetylated peptide EHTALLK(ac)IEGVYAR (SEQ ID NO: 630, 60S ribosomal protein L35a [29], RPL35A): 0.00 log 2
L/H ratio of acetylated peptide NDEELNK(ac)LLGR (SEQ ID NO: 634, Histone H2A type 1-B/E [96], HIST1H2AE, HIST1H2AB, HIST1H2AD, HIST1H2AG, HIST1H2AK, HIST1H2AL, HIST1H2AM, HIST1H2AJ, HIST1H2AI): 0.00 log 2
L/H ratio of acetylated peptide TFK(ac)[…] (SEQ ID NO: 636, 60S ribosomal protein L3 [103], SNORD43, RPL3): 0.00 log 2
L/H ratio of acetylated peptide YK(ac)[…] (SEQ ID NO: 637, Protein disulfide-isomerase [328], P4HB): 0.00 log 2
L/H ratio of acetylated peptide NAEK(ac)YAEEDRR (SEQ ID NO: 638, Stress-70 protein mitochondrial [567], HSPA9): 0.00 log 2
L/H ratio of acetylated peptide […](ac)DR (SEQ ID NO: 639, pyruvate dehydrogenase E1 component subunit alpha somatic form mitochondrial isoform 2 precursor [359], PDHA1): 0.00 log 2
L/H ratio of acetylated peptide VEYFLK(ac)WK (SEQ ID NO: 645, Chromobox protein homolog 3 [50], CBX3): 0.00 log 2
L/H ratio of acetylated peptide HYK(ac)TDFDK (SEQ ID NO: 646, Isocitrate dehydrogenase [NADP] mitochondrial [275], IDH2): 0.00 log 2
L/H ratio of acetylated peptide EGYAWAEDK(ac)EHCEEYGR (SEQ ID NO: 647, tRNA-splicing ligase RtcB homolog [190], C22orf28): 0.00 log 2
L/H ratio of acetylated peptide […](ac)QNK (SEQ ID NO: 650, Dihydrolipoyl dehydrogenase mitochondrial [143], DLD): 0.00 log 2
L/H ratio of acetylated peptide FYVK(ac)DHR (SEQ ID NO: 651, CDGSH iron-sulfur domain-containing protein 1 [37], CISD1): 0.00 log 2
L/H ratio of acetylated peptide HIVK(ac)EFK (SEQ ID NO: 653, Stress-70 protein mitochondrial [288], HSPA9): 0.00 log 2
L/H ratio of acetylated peptide MYKEEGLK(ac)AFYK (SEQ ID NO: 654, Isoform A of Phosphate carrier protein mitochondrial [214], SLC25A3): 0.00 log 2
L/H ratio of acetylated peptide […](ac)EFR (SEQ ID NO: 657, Isoform 1 of Clathrin heavy chain 1 [1264], CLTC): 0.00 log 2
L/H ratio of acetylated peptide YELTGK(ac)FER (SEQ ID NO: 659, Annexin A6 [81], ANXA6): 0.00 log 2
L/H ratio of acetylated peptide LAMVK(ac)AEPDVK (SEQ ID NO: 661, NADH dehydrogenase [ubiquinone] 1 alpha subcomplex subunit 5 [60], NDUFA5): 0.00 log 2
L/H ratio of acetylated peptide NEK(ac)LFYR (SEQ ID NO: 662, NADP-dependent malic enzyme mitochondrial [119], ME3): 0.00 log 2
L/H ratio of acetylated peptide DLSLDDFK(ac)GK (SEQ ID NO: 664, Thioredoxin-dependent peroxide reductase mitochondrial [91], PRDX3): 0.00 log 2
L/H ratio of acetylated peptide LTSDDVK(ac)EQIYK (SEQ ID NO: 669, 40S ribosomal protein S13 [34], RPS13): 0.00 log 2
L/H ratio of acetylated peptide SCNCLLLK(ac)[…] (SEQ ID NO: 670, Isoform alpha-enolase of Alpha-enolase [343], ENO1): 0.00 log 2
L/H ratio of acetylated peptide […](ac)FLIK (SEQ ID NO: 671, Methyltransferase-like protein 7A [105], METTL7A): 0.00 log 2
L/H ratio of acetylated peptide […](ac)QLK (SEQ ID NO: 672, Annexin A6 [442], ANXA6): 0.00 log 2
L/H ratio of acetylated peptide LENDK(ac)SFR (SEQ ID NO: 678, Isoform 1 of Enoyl-CoA delta isomerase 1 mitochondrial [89], ECI1): 0.00 log 2
L/H ratio of acetylated peptide LVAMK(ac)FLR (SEQ ID NO: 679, Isoform 1 of Nucleoside diphosphate kinase B [39], NME1, NME2, NME1-NME2): 0.00 log 2
L/H ratio of acetylated peptide SGK(ac)YDLDFK (SEQ ID NO: 688, Isoform alpha-enolase of Alpha-enolase [256], ENO1): 0.00 log 2
L/H ratio of acetylated peptide LYGDLK(ac)HLK (SEQ ID NO: 689, cDNA FLJ61478 highly similar to Succinate dehydrogenase (ubiquinone) flavoprotein subunit mitochondrial [547], SDHA): 0.00 log 2
L/H ratio of acetylated peptide TISAK(ac)YAEER (SEQ ID NO: 692, Isoform 1 of Myosin-9 [1459], MYH9): 0.00 log 2
L/H ratio of acetylated peptide (ac)ASNK(ac)TTLQK (SEQ ID NO: 693, Chromobox protein homolog 3 [5], CBX3): 0.00 log 2
L/H ratio of acetylated peptide KAVTK(ac)VQK (SEQ ID NO: 699, Histone H2B type 2-F [21], HIST2H2BF): 0.00 log 2
L/H ratio of acetylated peptide ILQK(ac)QGFK (SEQ ID NO: 700, Dihydrolipoyl dehydrogenase mitochondrial [267], DLD): 0.00 log 2
L/H ratio of acetylated peptide NK(ac)FGAPQK (SEQ ID NO: 701, Trifunctional enzyme subunit alpha mitochondrial [353], HADHA): 0.00 log 2
L/H ratio of acetylated peptide VTAVHK(ac)ANIMK (SEQ ID NO: 702, Isocitrate dehydrogenase [NAD] subunit gamma mitochondrial [221], IDH3G): 0.00 log 2
L/H ratio of acetylated peptide ACPEK(ac)HFAFK (SEQ ID NO: 703, Protein FAM3C [67], FAM3C): 0.00 log 2
L/H ratio of acetylated peptide QLAQK(ac)YNCDK (SEQ ID NO: 705, Ubiquitin-60S ribosomal protein L40 [88], UBA52): 0.00 log 2
L/H ratio of acetylated peptide […](ac)EDVK (SEQ ID NO: 706, Isoform 1 of ATP synthase subunit d mitochondrial [95], ATP5H): 0.00 log 2
L/H ratio of acetylated peptide ADK(ac)LAEEHSS (SEQ ID NO: 708, ATP synthase subunit beta mitochondrial [522], ATP5B): 0.00 log 2
L/H ratio of acetylated peptide DFGSFDK(ac)FK (SEQ ID NO: 709, Superoxide dismutase [Mn] mitochondrial [130], SOD2): 0.00 log 2
L/H ratio of acetylated peptide CSK(ac)LPSSTK(ac)SGWPR (SEQ ID NO: 711, cDNA FLJ75110 highly similar to Homo sapiens PHD finger protein 15 (PHF15) mRNA 3[2:38], PHF15): 0.00 log 2
L/H ratio of acetylated peptide KAINK(ac)AQK (SEQ ID NO: 712, Histone H2B type 1-M [21], HIST1H2BM): 0.00 log 2
L/H ratio of acetylated peptide TDLEK(ac)[…] (SEQ ID NO: 714, Putative annexin A2-like protein [157], ANXA2P2): 0.00 log 2
L/H ratio of acetylated peptide KGIEK(ac)NLGIGK (SEQ ID NO: 718, Malate dehydrogenase mitochondrial [301], MDH2): 0.00 log 2
L/H ratio of acetylated peptide QLYNIYAK(ac)HTK (SEQ ID NO: 720, Putative ATP-dependent Clp protease proteolytic subunit mitochondrial [211], CLPP): 0.00 log 2
L/H ratio of acetylated peptide GKGDK(ac)AQIEK (SEQ ID NO: 721, 60 kDa heat shock protein mitochondrial [364], HSPD1): 0.00 log 2
L/H ratio of acetylated peptide K(ac)FLVHNVK (SEQ ID NO: 722, 60S ribosomal protein L32 [76], RPL32): 0.00 log 2
